melting point | Structure (SMILES)
≥ 300 °C | Cc1ccnc2c1C(=NNC(=N)N)CC(c1ccsc1)C2.Cl (stereo not shown)
294 °C (dec.) | Cl.N=C(N)N/N=C1\CC(c2ccccc2)Cc2occ(C(N)=O)c21 (stereo not shown)
176 °C (dec.) | Cc1c[nH]c2c1C(=NNC(=N)N)CC(c1ccccc1)C2.Cl (stereo not shown)
250 °C (dec.) | Cc1coc2c1C(=NNC(=N)N)CC(c1ccccc1)C2.Cl (stereo not shown)
285 °C (dec.) | Cc1coc2c1/C(=N/NC(=N)N)CC(c1cccc(Br)c1)C2.Cl (stereo not shown)
260 °C (dec.) | Cc1ccc(C2CC(=NNC(=N)N)c3c(C)coc3C2)cc1.Cl (stereo not shown)
235 °C (dec.) | Cc1coc2c1C(=NNC(=N)N)CC(c1ccc(Br)cc1)C2.Cl (stereo not shown)
182 °C (dec.) | COc1ccc(C2CC(=NNC(=N)N)c3c(C)coc3C2)cc1.Cl (stereo not shown)
275 °C (dec.) | Cc1coc2c1/C(=N/NC(=N)N)CC(c1ccccc1C(F)(F)F)C2.Cl (stereo not shown)
288 °C (dec.) | Cc1coc2c1/C(=N/NC(=N)N)CC(c1ccccc1F)C2.Cl (stereo not shown)
278 °C (dec.) | Cc1coc2c1C(=NNC(=N)N)CC(c1ccc(F)cc1F)C2.Cl (stereo not shown)
286 °C (dec.) | Cc1coc2c1/C(=N/NC(=N)N)CC(c1cccc(Cl)c1Cl)C2.Cl (stereo not shown)
296 °C (dec.) | Cc1coc2c1/C(=N/NC(=N)N)CC(c1ccccc1Br)C2.Cl (stereo not shown)
≥ 300 °C | Cc1coc2c1/C(=N/NC(=N)N)CC(c1ccco1)C2.Cl (stereo not shown)
283 °C (dec.) | Cl.N=C(N)N/N=C1\CC(c2ccc(F)cc2)Cc2occ(C(F)(F)F)c21 (stereo not shown)
282 °C (dec.) | Cl.N=C(N)N/N=C1\CC(c2ccco2)Cc2occ(C(F)(F)F)c21 (stereo not shown)
277 °C (dec.) | CCOC(=O)c1coc2c1/C(=N/NC(=N)N)CC(c1ccccc1Cl)C2.Cl (stereo not shown)
218 °C (dec.) | Cc1ccccc1C1CC(=NNC(=N)N)c2c(C)ccnc2C1.Cl (stereo not shown)
233 °C (dec.) | Cc1ccnc2c1C(=NNC(=N)N)CC(c1ccccc1Br)C2.Cl (stereo not shown)
≥ 300 °C | Cc1ccnc2c1C(=NNC(=N)N)CC(c1ccco1)C2.Cl (stereo not shown)
267 °C (dec.) | Cc1ccnc2c1C(=NNC(=N)N)CC(c1ccncc1)C2.Cl (stereo not shown)
230 °C (dec.) | Cc1cn(C)c2c1C(=NNC(=N)N)CC(c1ccccc1)C2.Cl (stereo not shown)
≥ 300 °C | Cc1ccc2c(n1)CC(c1ccccc1)CC2=NNC(=N)N.Cl (stereo not shown)
270 °C (dec.) | Cc1cc(C)c2c(n1)CC(c1ccccc1)CC2=NNC(=N)N.Cl (stereo not shown)

More lines, now with the values behind:

Structure (SMILES) | melting point
Cl.N=C(N)NN=C1CC(c2ccccc2)Cc2[nH]ccc21 (stereo not shown) | 192 to 194 °C
Cc1ccnc2c1C(=NNC(=N)NO)CC(c1cc(Cl)sc1Cl)C2.Cl (stereo not shown) | 196 to 197 °C (dec.)
Cc1ccnc2c1C(=NNC(=N)NO)CC(c1ccccc1Cl)C2.Cl (stereo not shown) | 185 to 187 °C
Cl.N=C(N)NN=C1CC(c2ccccc2)Cc2c1ccn2C(=O)c1ccccc1 (stereo not shown) | 168 °C (dec.)
Cc1ccnc2c1C(=NNC(=N)N)CC(c1cc(Cl)sc1Cl)C2.O=S(=O)(O)O (stereo not shown) | 239 to 242 °C
Cc1ccnc2c1C(=NNC(=N)N)CC(c1cc(Cl)sc1Cl)C2.O=[N+]([O-])O (stereo not shown) | 167 °C (dec.)
Cc1ccnc2c1C(=NNC(=N)N)CC(c1nccs1)C2.Cl (stereo not shown) | 282 °C (dec.)
Cc1ccnc2c1C(=NNC(=N)N)CC(c1sc(Cl)cc1Cl)C2.Cl (stereo not shown) | 184 to 187 °C
Cc1cc(Cl)sc1C1CC(=NNC(=N)N)c2c(C)ccnc2C1.Cl (stereo not shown) | 193 to 196 °C
Cc1ccnc2c1C(=NNC(=N)N)CC(c1cc(Br)sc1Br)C2.Cl (stereo not shown) | 272 to 273 °C
Cc1ccnc2c1C(=NNC(=N)NO)CC(c1ccsc1Br)C2.Cl (stereo not shown) | 197 to 198 °C
CS(=O)(=O)O.N=C(N)NN=C1CC(c2ccccc2Cl)Cc2nncc(C(F)(F)F)c21 (stereo not shown) | 207 to 208 °C
Cc1cc(=O)n(C)c2c1C(=NNC(=N)N)CC(c1ccsc1)C2.Cl (stereo not shown) | 156 to 157 °C
Cc1cc(=O)[nH]c2c1C(=NNC(=N)N)CC(c1ccsc1)C2.Cl (stereo not shown) | ≥ 300 °C
Cc1cc(=O)[nH]c2c1C(=NNC(=N)N)CC(c1ccccc1Cl)C2.Cl (stereo not shown) | ≥ 300 °C
Cl.N=C(N)NN=C1CC(c2ccccc2Cl)Cc2nncc(-c3ccc(Cl)cc3)c21 (stereo not shown) | 196 °C (dec.)
Cc1nn(Cc2ccccc2)c2c1C(=NNC(=N)N)CC(c1ccccc1Cl)C2.Cl (stereo not shown) | 151 to 153 °C
Cc1ccccc1C1CC(=NNC(=N)N)c2c(C)cn(S(C)(=O)=O)c2C1.Cl (stereo not shown) | 228 to 230 °C
Cc1c2c(nn1-c1ccccc1)CC(c1ccccc1Cl)CC2=NNC(=N)N.Cl (stereo not shown) | 192 to 194 °C
Cc1nn(CCc2ccccc2)c2c1C(=NNC(=N)N)CC(c1ccccc1Cl)C2.Cl (stereo not shown) | 152 to 154 °C
Cc1cn[n+]([O-])c2c1C(=NNC(=N)N)CC(c1ccccc1Cl)C2.Cl (stereo not shown) | 283 to 284 °C
Cc1cn(S(C)(=O)=O)c2c1C(=NNC(=N)N)CC(c1ccccc1F)C2.Cl (stereo not shown) | 286 °C (dec.)
Cc1ccc(Cl)c(C2CC(=NNC(=N)N)c3c(C)ccnc3C2)c1.Cl (stereo not shown) | 240 to 243 °C

Structure (SMILES) | melting point
Cc1ccc(F)c(C2CC(=NNC(=N)N)c3c(C)ccnc3C2)c1.Cl (stereo not shown) | 230 to 235 °C
Cc1ccc(F)cc1C1CC(=NNC(=N)N)c2c(C)ccnc2C1.Cl (stereo not shown) | 202 to 205 °C
COc1ccc(Cl)cc1C1CC(=NNC(=N)N)c2c(C)ccnc2C1.Cl (stereo not shown) | 205 to 209 °C
Cc1ccnc2c1C(=NNC(=N)N)CC(c1cc(Cl)ccc1O)C2.Cl (stereo not shown) | 202 °C (dec.)
COc1ccc(F)cc1C1CC(=NNC(=N)N)c2c(C)ccnc2C1.Cl (stereo not shown) | ≥ 300 °C
Cc1cn(S(C)(=O)=O)c2c1C(=NNC(=N)N)CC(c1ccccc1Cl)C2.Cl (stereo not shown) | 258 °C (dec.)
Cc1ccc(F)cc1C1CC(=NNC(=N)N)c2c(C)cnnc2C1.Cl (stereo not shown) | 240 °C (dec.)
Cc1cnnc2c1C(=NNC(=N)N)CC(c1cc(Cl)ccc1F)C2.Cl (stereo not shown) | ≥ 300 °C
Cc1n[nH]c2c1C(=NNC(=N)N)CC(c1cc(Cl)ccc1Cl)C2.Cl (stereo not shown) | 287 °C (dec.)
Cc1cn(S(C)(=O)=O)c2c1C(=NNC(=N)N)CC(c1cccs1)C2.Cl (stereo not shown) | 297 °C (dec.)
Cc1ccccc1C1CC(=NNC(=N)N)c2c(C)n[nH]c2C1.Cl (stereo not shown) | 211 °C (dec.)
Cc1n[nH]c2c1C(=NNC(=N)N)CC(c1ccccc1O)C2.Cl (stereo not shown) | 168 °C (dec.)
Cc1ccnc2c1C(=NNC(=N)N)CC(c1ccc(F)cc1F)C2.Cl (stereo not shown) | 286 °C (dec.)
Cc1cc(C)c2c(n1)CC(c1ccccn1)CC2=NNC(=N)N.Cl (stereo not shown) | 201 °C (dec.)
Cc1ccc2c(n1)CC(c1ccccc1C)CC2=NNC(=N)N.Cl (stereo not shown) | 206 °C (dec.)
Cc1ncnc2c1/C(=N/NC(=N)N)CC(c1ccccc1Cl)C2.Cl (stereo not shown) | 284 °C (dec.)
CCCn1ccc2c1CC(c1ccccc1)CC2=NNC(=N)N.Cl (stereo not shown) | 155 °C (dec.)
Cc1nc(C)c2c(n1)CC(c1ccccc1Cl)C/C2=N\NC(=N)N.Cl (stereo not shown) | 242 to 244 °C
Cc1ccccc1C1=CC(=NNC(=N)N)c2c(C)ccnc21.Cl | 203 to 204 °C (dec.)
Cc1ccnc2c1C(=NNC(=N)NO)CC(c1cccc(Cl)c1Cl)C2.Cl (stereo not shown) | 196 to 198 °C (dec.)
Cc1ccnc2c1C(=NNC(=N)NO)CC(c1ccco1)C2.Cl (stereo not shown) | 196 to 198 °C (dec.)
Cc1ccc(C2CC(=NNC(=N)NO)c3c(C)ccnc3C2)s1.Cl (stereo not shown) | 210 to 212 °C (dec.)
Cl.N=C(N)NN=C1CC(c2ccccc2)Cc2[nH]c(=O)ccc21 (stereo not shown) | ≥ 300 °C
